How the values were obtained:
Plasma [1] = experiment: Cmax in C57BL/6JO1aHsd mouse plasma at 10 mg/kg, po; type: ADME, organism-based; parameters: dose 10 mg/kg, route oral; conditions: in vivo
[2] = Oral bioavailability in C57BL/6JO1aHsd mouse at 10 mg/kg; type: ADME, organism-based; conditions: in vivo
Muscle tissue [3] = experiment: Cmax in C57BL/6JO1aHsd mouse muscle at 10 mg/kg, po; type: ADME, organism-based; parameters: dose 10 mg/kg, route oral; conditions: in vivo
[4] = Tmax in C57BL/6JO1aHsd mouse plasma at 10 mg/kg, po; type: ADME, organism-based; parameters: dose 10 mg/kg, route oral
Muscle tissue [5] = experiment: Dose normalized AUC in C57BL/6JO1aHsd mouse muscle at 10 mg/kg, po; type: ADME, organism-based; parameters: dose 10 mg/kg, route oral; conditions: in vivo
[6] = Tmax in C57BL/6JO1aHsd mouse muscle at 10 mg/kg, po; type: ADME, organism-based, Muscle tissue; parameters: dose 10 mg/kg, route oral
[7] = Ratio of drug uptake from muscle to plasma in C57BL/6JO1aHsd mouse at 10 mg/kg, po; type: ADME, organism-based; parameters: dose 10 mg/kg, route oral
Brain [8] = experiment: Cmax in C57BL/6JO1aHsd mouse brain at 10 mg/kg, po; type: ADME, organism-based; parameters: dose 10 mg/kg, route oral; conditions: in vivo
Plasma [9] = experiment: Dose normalized AUC in C57BL/6JO1aHsd mouse plasma at 10 mg/kg, po; type: ADME, organism-based; parameters: dose 10 mg/kg, route oral; conditions: in vivo
[10] = Volume of distribution at steady state in C57BL/6JO1aHsd mouse at 5 mg/kg, iv; type: ADME, organism-based; parameters: dose 5 mg/kg, route intravenous; conditions: in vivo, read-out: Vdss
[11] = Ratio of drug uptake from brain to plasma in C57BL/6JO1aHsd mouse at 10 mg/kg, po; type: ADME, organism-based; parameters: dose 10 mg/kg, route oral; conditions: read-out: BPR
[12] = Tmax in C57BL/6JO1aHsd mouse brain at 10 mg/kg, po; type: ADME, organism-based; parameters: dose 10 mg/kg, route oral
Brain [13] = experiment: Dose normalized AUC in C57BL/6JO1aHsd mouse brain at 10 mg/kg, po; type: ADME, organism-based; parameters: dose 10 mg/kg, route oral; conditions: in vivo

Cmax normalised (Plasma [1])	bioavailability [2]	Cmax normalised (Muscle tissue [3])	Tmax [4]	AUC/dose (Muscle tissue [5])	Tmax [6]	Kp [7]	Cmax normalised (Brain [8])	AUC/dose (Plasma [9])	Vd [10]	Kp [11]	Tmax [12]	AUC/dose (Brain [13])	Structure (SMILES)
810 nM·kg/mg	73%	420 nM·kg/mg	30 min	1000 nM·kg·h/mg	60 min	0.4	200 nM·kg/mg	1500 nM·kg·h/mg	1.6 L/kg	0.3	60 min	390 nM·kg·h/mg	O=C(NO)[C@@H]1[C@H](c2ccccc2)[C@H]1c1ccc(-c2cnc(C3CC3)o2)cc1
280 nM·kg/mg	62%	160 nM·kg/mg	30 min	1000 nM·kg·h/mg	60 min		5.7 nM·kg/mg	1100 nM·kg·h/mg	4.6 L/kg		30 min	17 nM·kg·h/mg	O=C(NO)[C@@H]1[C@H](c2ccccc2)[C@H]1c1ccc2c(c1)CN(CC(F)(F)F)C2=O
1200 nM·kg/mg	84%	730 nM·kg/mg	30 min	810 nM·kg·h/mg	30 min		670 nM·kg/mg	1300 nM·kg·h/mg	0.74 L/kg		30 min	700 nM·kg·h/mg	O=C(NO)[C@@H]1[C@H](c2ccccc2)[C@H]1c1ccc(-c2cnco2)cc1
